Experimental data: patent US20110112100A1, “Hepatitis C Virus Inhibitors” (priority 2009, published 2011)
Where a name gives a salt, the structure may show the parent alone. Read-outs that look alike come from different tables or passages of the source.

Columns and labels:
1a-H77 replicon cells = assay: HCV 1a replicon inhibitory activity (Renilla luciferase); assay type: cell-based, hepatitis C virus; conditions: read-out: IC50 value (95% Confidence Intervals) pM Replicon 1A assay
Method: (§1) Test compounds were solubilised to 4 mM in 100% DMSO. Dilutions were made to the desired starting concentration in 100% DMSO and then 1 in 3 dilutions made, again in 100% DMSO. 0.5 μl of each sample was added to 384-well assay plates. White Lumitrac (Greiner) plates were used for the 1a and 1b replicon assays and black, clear bottomed (Greiner) plates were used for the WST-1 cytotoxity assay.
1a-H77 replicon cells (licensed from Apath LLC) were resuspended to a concentration of 1.4×10^5 cells/ml by addition of pre-warmed assay medium (Dulbecco's Modified Eagle's Medium (DMEM)+10% fetal calf serum (FCS)). 50 μl of this suspension was added to each well of a 384-well assay plate (Lumitrac, Greiner), already containing 0.5 μl of test compound.
All plates were covered with gas permeable seals and incubated at 37° C., 5% CO2 for 48 hours. After 48 hours, the assay plate was removed from the incubator and left to cool to room temperature for 15 to 30 mins. Medium was removed from the wells and 5 μl 1× lysis buffer (from Promega's Renilla Luciferase assay kit, E2820) was added to each well. The plate was incubated at room temperature for 15 mins then 15 μl 1×Assay Substrate (from the same kit) was added to each well. Luminescence was read immediately using an EnVision (Perkin Elmer) plate reader. The half maximal effective concentration (1050) values were calculated by constructing log concentration-response curves for each compound.

1b (con1) replicon cells = assay: HCV 1b replicon inhibitory activity (luciferase, Britelite Plus); assay type: cell-based, hepatitis C virus; conditions: read-out: IC50 value (95% Confidence Intervals) pM Replicon 1B assay
Method: as §1
1b (con1) replicon cells (pFK1389lucubineo/NS3-3′/ET/9B, licensed from Ralf Bartenschlager, University of Heidelberg) were resuspended to a concentration of 1.4×10^5 cells/ml by addition of pre-warmed medium (DMEM+10% FCS). 50 μl of this suspension was added to each well of a 384-well assay plate (Lumitrac, Greiner) already containing 0.5 μl of test compound.
All plates were covered with gas permeable seals and incubated at 37° C., 5% CO2 for 48 hours. After 48 hours, the plate was removed from the incubator and left to cool to room temperature for 15-30 mins. 35 ul of reconstituted Lyophilised Britelite Plus Substrate (PerkinElmer, 6016767) to medium was added to each well. Luminescence was read after 1 min but before 15 mins on an EnVision (Perkin Elmer) plate reader. The half maximal effective concentration (1050) values were calculated by constructing log concentration-response curves for each compound.

[1] = geometric mean, 95% confidence intervals in parentheses, 48 hours, medium with 10% FCS

SMILES | IC50 (1a-H77 replicon cells; Hepatitis C virus, 48 h) [pM] | IC50 (1b (con1) replicon cells; Hepatitis C virus, 48 h) [pM] | IC50 (1a-H77 replicon cells; [1]) [pM] | IC50 (1b (con1) replicon cells; [1]) [pM]
COC(=O)N[C@H](C(=O)N1CCC[C@H]1c1nc(-c2ccc(-c3cnc4cc(-c5cnc([C@@H]6CCCN6C(=O)CNC(=O)c6ccc7[nH]cnc7c6)[nH]5)ccc4n3)cc2)c[nH]1)C(C)C [Example 43, Methyl {(2S)-1-[(2S)-2-(4-{4-[6-(2-{(2S)-1-[N-(1H-benzimidazol-5-ylcarbonyl)glycyl]pyrrolidin-2-yl}-1H-imidazol-5-yl)quinoxalin-2-yl]phenyl}-1H-imidazol-2-yl)pyrrolidin-1-yl]-3-methyl-1-oxobutan-2-yl}carbamate trifluoroacetic acid salt] | 787 | 388 |  | 
COC(=O)N[C@H](C(=O)N1CCC[C@H]1c1nc(-c2ccc(-c3cnc4cc(-c5cnc([C@@H]6CCCN6C(=O)CNC(=O)c6[nH]nc7ccccc67)[nH]5)ccc4n3)cc2)c[nH]1)C(C)C [Example 44, Methyl {(2S)-1-[(2S)-2-(4-{4-[6-(2-{(2S)-1-[N-(2H-indazol-3-ylcarbonyl)glycyl]pyrrolidin-2-yl}-1H-imidazol-5-yl)quinoxalin-2-yl]phenyl}-1H-imidazol-2-yl)pyrrolidin-1-yl]-3-methyl-1-oxobutan-2-yl} carbamate trifluoroacetic acid salt] |  |  | 3510 | 100
COC(=O)N[C@H](C(=O)N1CCC[C@H]1c1nc(-c2ccc(-c3cnc4cc(-c5cnc([C@@H]6CCCN6C(=O)CNC(=O)CN6C(=O)CCc7ccccc76)[nH]5)ccc4n3)cc2)c[nH]1)C(C)C [Example 45, Methyl {(2S)-3-methyl-1-oxo-1-[(2S)-2-{4-[4-(6-[2-[(2S)-1-{N-[(2-oxo-3,4-dihydroquinolin-1(2H)-yl)acetyl]glycyl}pyrrolidin-2-yl]-1H-imidazol-5-yl}quinoxalin-2-yl)phenyl]-1H-imidazol-2-yl}pyrrolidin-1-yl]butan-2-yl}carbamate trifluoroacetic acid salt] | 20000 | 507 |  | 
COC(=O)N[C@H](C(=O)N1CCC[C@H]1c1nc(-c2ccc(-c3cnc4cc(-c5cnc([C@@H]6CCCN6C(=O)[C@@H](C)NC(C)=O)[nH]5)ccc4n3)cc2)c[nH]1)C(C)C [Example 46, Methyl {(2S)-1-[(2S)-2-{4-[4-(6-(2-[(2S)-1-(N-acetyl-D-alanyl)pyrrolidin-2-yl]-1H-imidazol-5-yl}quinoxalin-2-yl)phenyl]-1H-imidazol-2-yl}pyrrolidin-1-yl]-3-methyl-1-oxobutan-2-yl}carbamate trifluoroacetic acid salt] | 803 | 44.2 |  | 
COC(=O)N[C@@H](COCc1ccccc1)C(=O)N1CCC[C@H]1c1ncc(-c2ccc3nc(-c4ccc(-c5c[nH]c([C@@H]6CCCN6C(=O)[C@@H](NC(=O)OC)C(C)C)n5)cc4)cnc3c2)[nH]1 [Example 48, Methyl {(2S)-1-[(2S)-2-{4-[4-(6-{2-[(2S)-1-{(2S)-3-(benzyloxy)-2-[(methoxycarbonyl)amino]propanoyl}pyrro-lidin-2-yl]-1H-imidazol-5-yl}quinoxalin-2-yl)phenyl]-1H-imidazol-2-yl}pyrrolidin-1-yl]-3-methyl-1-oxobutan-2-yl}carbamate carbamate trifluoroacetic acid salt] |  |  | 27.8 | 6.84
COC(=O)N[C@H](C(=O)N1CCC[C@H]1c1nc(-c2ccc(-c3cnc4cc(-c5cnc([C@@H]6CCCN6C(=O)C6(NC(=O)OC)CCC6)[nH]5)ccc4n3)cc2)c[nH]1)C(C)C [Example 50, Methyl {(2S)-1-[(2S)-2-{4-[4-(6-{2-[(2S)-1-({1-[(methoxycarbonyl)amino]cyclobutyl}carbonyl)pyrrolidin-2-yl]-1H-imidazol-5-yl}quinoxalin-2-yl)phenyl]-1H-imidazol-2-yl}pyrrolidin-1-yl]-3-methyl-1-oxobutan-2-yl}carbamate trifluoroacetic acid salt] | 356 | 77.2 |  | 
COC(=O)N[C@H](C(=O)N1CCC[C@H]1c1nc(-c2ccc(-c3cnc4cc(-c5cnc([C@@H]6CCCN6C(=O)C(C)(C)NC(=O)OC)[nH]5)ccc4n3)cc2)c[nH]1)C(C)C [Example 51, Methyl {(2S)-1-[(2S)-2-{4-[4-(6-{2-[(2S)-1-{2-[(methoxycarbonyl)amino]-2-methylpropanoyl}pyrrolidin-2-yl]-1H-imidazol-5-yl}quinoxalin-2-yl)phenyl]-1H-imidazol-2-yl}pyrrolidin-1-yl]-3-methyl-1-oxobutan-2-yl}carbamate trifluoroacetic acid salt] | 1850 | 144 |  | 
COC(=O)N[C@H](C(=O)N1CCC[C@H]1c1nc(-c2ccc(-c3cnc4cc(-c5cnc([C@@H]6CCCN6C(=O)[C@@H](C)NC(=O)OC)[nH]5)ccc4n3)cc2)c[nH]1)C(C)C [Example 53, Methyl {(2S)-1-[(2S)-2-(4-{4-[6-(2-{(2S)-1-[N-(methoxycarbonyl)-D-alanyl]pyrrolidin-2-yl}-1H-imidazol-5-yl)quinoxalin-2-yl]phenyl}-1H-imidazol-2-yl)pyrrolidin-1-yl]-3-methyl-1-oxobutan-2-yl} carbamate trifluoroacetic acid salt] |  |  | 646 | 21.1
COC(=O)N[C@H](C(=O)N1CCC[C@H]1c1nc(-c2ccc(-c3cnc4cc(-c5cnc([C@@H]6CCCN6C(=O)[C@@H](CC(C)C)NC(=O)OC)[nH]5)ccc4n3)cc2)c[nH]1)C(C)C [Example 54, Methyl {(2R)-1-[(2S)-2-{5-[2-(4-{2-[(2S)-1-{(2S)-2-[(methoxycarbonyl)amino]-3-methylbutanoyl}pyrrolidin-2-yl]-1H-imidaozl-4-yl}phenyl)quinoxalin-6-yl]-1H-imidazol-2-yl}pyrrolidin-1-yl]-4-methyl-1-oxopentan-2-yl}carbamate trifluoroacetic acid salt] |  |  | 61.2 | 14.9
CCC[C@H](NC(=O)OC)C(=O)N1CCC[C@H]1c1ncc(-c2ccc3nc(-c4ccc(-c5c[nH]c([C@@H]6CCCN6C(=O)[C@@H](NC(=O)OC)C(C)C)n5)cc4)cnc3c2)[nH]1 [Example 55, Methyl {(2S)-1-[(2S)-2-{5-[2-(4-{2-[(2S)-1-{(2S)-2-[(methoxycarbonyl)amino]-3-methylbutanoyl}pyrrolidin-2-yl]-1H-imidazol-4-yl}phenyl)quinoxalin-6-yl]-1H-imidazol-2-yl}pyrrolidin-1-yl]-1-oxopentan-2-yl}carbamate trifluoroacetic acid salt] | 18.1 | 8.85 |  | 
COC(=O)N[C@@H](C)C(=O)N1CCC[C@H]1c1ncc(-c2ccc3nc(-c4ccc(-c5c[nH]c([C@@H]6CCCN6C(=O)[C@@H](NC(=O)OC)C(C)C)n5)cc4)cnc3c2)[nH]1 [Example 57, Methyl {(2S)-1-[(2S)-2-(4-{4-[6-(2-{(2S)-1-[N-(methoxycarbonyl)-L-alanyl]pyrrolidin-2-yl}-1H-imidazol-5-yl)quinoxalin-2-yl]phenyl}-1H-imidazol-2-yl)pyrrolidin-1-yl]-3-methyl-1-oxobutan-2-yl} carbamate trifluoroacetic acid salt] |  |  | 21.8 | 21.9
CC[C@@H](NC(=O)OC)C(=O)N1CCC[C@H]1c1ncc(-c2ccc3nc(-c4ccc(-c5c[nH]c([C@@H]6CCCN6C(=O)[C@@H](NC(=O)OC)C(C)C)n5)cc4)cnc3c2)[nH]1 [Example 59, Methyl {(2S)-1-[(2S)-2-{4-[4-(6-{2-[(2S)-1-{(2R)-2-[(methoxycarbonyl)amino]butanoyl}pyrrolidin-2-yl]-1H-imidazol-5-yl}quinoxalin-2-yl)phenyl]-1H-imidazol-2-yl}pyrrolidin-1-yl]-3-methyl-1-oxobutan-2-yl} carbamate trifluoroacetic acid salt] |  |  | 2390 | 97.5
